Consider 18 compounds from US5935955A, “Pharmaceutical piperazine compounds” (Xenova Limited, priority 1994, dated 1999).

Counter-ions that a name gives are not always drawn.

Series [1] relates to AR 1.0 cells. Nature of the series: Potentiation index for doxorubicin (doxorubicin titration with fixed concentration of compound). Format: cell-based, mouse. Conditions: RMA at 1 μM; doxorubicin, four days. The method, then:
The EMT6 mouse mammary carcinoma cell line and the MDR resistant sublime AR 1.0 were cultured in RPMI 1640 medium containing 10% foetal calf serum and 2 mM glutamine at 37° C. in 5% CO2. Cells were passaged between 1 in 200 and 1 in 2000 in the case of the parental cell line and between 1 in 20 and 1 in 200 in the case of the MDR resistant subline, after trypsinisation (0.25% trypsin, 0.2 gl^-1, EDTA).
Cells were cultured for four days with a titration of doxorubicin (0.01 nm-50 μM) in the presence of a fixed concentration of each compound. Proliferation was quantified as described by Skehan et. al, loc cit. The IC50 (concentration required to reduce proliferation to 50% of the untreated controls) for doxorubicin alone and with each compound were derived and used to calculate the potentiation index (PI): [formula]

Series [2] relates to AR 1.0 cells. Put plainly: Compound toxicity (proliferation, sulphorhodamine B). Format: cell-based. Conditions: Mus musculus, 96 h, read-out: Compound toxicity (IC50).
For series [3], the system named is AR 1.0 cells. Put plainly: Drug accumulation assay (tritiated daunorubicin). The settings on record: Mus musculus; for IC50: read-out: IC50 accumulation; for Emax: % maximum accumulation, 100% = verapamil at 100 μM, compound 5 nM to 100 μM, read-out: Max accumulation. Type of series: cell-based. As to the method: AR 1.0 cells were seeded into 96 well opaque culture plates (Canberra Packard). The assay medium contained a mixture of tritiated Daunorubicin (DNR), a cytotoxic agent, and unlabelled DNR (0.3 μCi/ml; 2 μM). Compounds of formula I were serially diluted in assay medium over a range of concentrations from 5 nM to 100 μM. The cells were incubated at 37° C. for 1 hr before washing and determination of cell associated radioactivity. Results were expressed as % maximum accumulation where 100% accumulation is that observed in the presence of the known RMA verapamil at 100 μM. Where possible an IC50 was determined.

In series [4] the test system is AR 1.0 cells. Put plainly: Potentiation of doxorubicin toxicity (fixed doxorubicin 0.86 μM, proliferation, sulphorhodamine B). Conditions: with doxorubicin 0.86 μM; four day incubation; 5760 min; read-out: Toxicity with cytotoxic agent (IC50). Type of series: cell-based, mouse. An excerpt: Compounds of formula (I) were examined for their ability to potentiate the toxicity of doxorubicin in AR 1.0 cells.

The mark [5] stands for this setting: compound alone, AR 1.0 cells, four day incubation.
The mark [6] stands for this setting: daunorubicin 2 μM, 1 hr at 37° C.

On to `COc1cc2c(cc1OC)CN(CCc1ccc(NC(=O)c3ccc(/C=c4\[nH]c(=O)/c(=C/c5ccccc5)n(C)c4=O)cc3)cc1)CC2` [Compound 9006, N-(4-(2-(6,7-Dimethoxy-1,2,3,4-tetrahydro-2-isoquinolyl)ethyl)phenyl)-4-((3Z,6Z)-6-benzylidene-1-methyl-2,5-dioxo-3-piperazinylidene)methylbenzamide], for which the Potentiation index in series [1] is on record as 1000. In addition, the IC50 in series [2] (setting [5]) came to 2000 nM; in series [3] (setting [6]), 400 nM.
`COc1cc2c(cc1OC)CN(CCNC(=O)c1ccc(/C=c3\[nH]c(=O)/c(=C/c4ccccc4)n(C)c3=O)cc1)CC2` [Compound 9008, N-(2-(6,7-Dimethoxy-1,2,3,4-tetrahydro-2-isoquinolyl)ethyl)-4-((3Z,6Z)-6-benzylidene-1-methyl-2,5-dioxo-3-piperazinylidene)methylbenzamide]: the IC50 in series [2] (setting [5]) turned out to be 10000 nM; in series [4] it was 2000 nM; in series [3] (setting [6]) it was 3000 nM.
Take `Cn1c(=O)/c(=C/c2ccc(C(=O)N3CCN(c4ncccn4)CC3)cc2)[nH]c(=O)/c1=C/c1ccccc1` [Compound 9022, 1-(4-((3Z,6Z)-6-Benzylidene-1-methyl-2,5-dioxo-3-piperazinylidene)methylbenzoyl)-4-(2-pyrimidyl)piperazine]: in series [1], the Potentiation index is 5. In addition, the IC50 in series [2] (setting [5]) stood at 35000 nM; in series [4] it was 800 nM; in series [3] (setting [6]) it was 7000 nM.
Take `CN(C)CC(O)COc1ccc(/C=c2\[nH]c(=O)/c(=C/c3ccccc3)n(C)c2=O)cc1` (stereo not shown) [Compound 9023, (3Z,6Z)-6-Benzylidene-3-(4-(3-dimethylamino-2-hydroxypropoxy)benzylidene)-1-methyl-2,5-piperazinedione]: the figures for the IC50 in series [2] (setting [5]) and in series [4] were 10000 nM and 5000 nM, respectively. The Emax in series [3] (1 h) came to 30%.
With `Cn1c(=O)/c(=C/c2ccc(C(=O)Nc3ccc(CCN4CCN(c5cccc(C(F)(F)F)c5)CC4)cc3)cc2)[nH]c(=O)/c1=C/c1ccccc1` [Compound 9049, N-(4-(2-(4-(3-Trifluoromethylphenyl)-1-piperazinyl)ethyl)phenyl)-4-((3Z,6Z)-6-benzylidene-1-methyl-2,5-dioxo-3-piperazinylidene)methylbenzamide], the Potentiation index in series [1] came to 15. The IC50 in series [2] (setting [5]) was 2000 nM. Moreover, the Emax in series [3] (1 h) was found to be 20%.
For the compound `COc1cc2c(cc1OC)CN(CCc1ccc(NC(=O)c3cccc(/C=c4\[nH]c(=O)/c(=C/c5ccccc5)n(C)c4=O)c3)cc1)CC2.Cl` [Compound 9051, N-(4-(2-(6,7-Dimethoxy-1,2,3,4-tetrahydro-2-isoquinolyl)ethyl)phenyl)-3-((3Z,6Z)-6-benzylidene-1-methyl-2,5-dioxo-3-piperazinylidene)methylbenzamide, hydrochloride], the Potentiation index in series [1] came to 2000. Further, the IC50 was found to be 2000 nM in series [2], 10 nM in series [4] and 150 nM in series [3] (1 h).
Regarding `Cn1c(=O)/c(=C/c2ccc(C(=O)Nc3ccc(N4CCOCC4)cc3)cc2)[nH]c(=O)/c1=C/c1ccccc1` [Compound 9054, N-(4-Morpholinophenyl)-4-((3Z,6Z)-6-benzylidene-1-methyl-2,5-dioxo-3-piperazinylidene)methylbenzamide, hydrochloride], the results for the IC50 in series [2] (setting [5]) and in series [4] were 50000 nM and 30000 nM, respectively. The Emax in series [3] (1 h) came to 32%.
As to `COc1cc2c(cc1OC)CN(Cc1ccc(NC(=O)c3ccc(/C=c4\[nH]c(=O)/c(=C/c5ccccc5)n(C)c4=O)cc3)cc1)CC2.Cl` [Compound 9064, N-(4-(6,7-Dimethoxy-1,2,3,4-tetrahydro-2-isoquinolyl)methylphenyl)-4-((3Z,6Z)-6-benzylidene-1-methyl-2,5-dioxo-3-piperazinylidene)methylbenzamide, hydrochloride], in series [1], the Potentiation index is 750. The IC50 in series [2] (setting [5]) was 2000 nM; in series [4], 10 nM; in series [3] (setting [6]) it was 300 nM.
As for `Cn1c(=O)/c(=C/c2ccc(C(=O)Nc3ccc(CCN4CCc5ccccc5C4)cc3)cc2)[nH]c(=O)/c1=C/c1ccccc1` [Compound 9065, N-(4-(2-(1,2,3,4-Tetrahydro-2-isoquinolyl)ethyl)phenyl)-4-((3Z,6Z)-6-benzylidene-1-methyl-2,5-dioxo-3-piperazinylidene)methylbenzamide], in series [1], the Potentiation index is listed as 15. The IC50 in series [2] (setting [5]) turned out to be 2000 nM; in series [3] (setting [6]), 6000 nM.
`COc1ccc(N2CCN(C(=O)c3ccc(/C=c4\[nH]c(=O)/c(=C/c5ccccc5)n(C)c4=O)cc3)CC2)cc1.Cl` [Compound 9071, 1-(4-((3Z,6Z)-6-Benzylidene-1-methyl-2,5-dioxo-3-piperazinylidene)methylbenzoyl)-4-(4-methoxyphenyl)piperazine, hydrochloride]: the Potentiation index in series [1] is given as 4. The IC50 in series [2] (setting [5]) was 6000 nM; in series [4], 200 nM; in series [3] (setting [6]), 6000 nM.
Turning to `Cn1c(=O)/c(=C/c2cccc(C(=O)Nc3ccc(CCN4CCN(c5ccccc5)CC4)cc3)c2)[nH]c(=O)/c1=C/c1ccccc1` [Compound 9083, N-(4-(2-(4-Phenyl-1-piperazinyl)ethyl)phenyl)-3-((3Z,6Z)-6-benzylidene-1-methyl-2,5-dioxo-3-piperazinylidene)methylbenzamide], the IC50 in series [2] (setting [5]) was 3000 nM; in series [4] it was 100 nM; in series [3] (setting [6]), 2000 nM.
For the compound `Cl.Cn1c(=O)/c(=C/c2ccc(C(=O)Nc3ccc(CN4CCN(c5ccccc5)CC4)cc3)cc2)[nH]c(=O)/c1=C/c1ccccc1` [Compound 9104, N-(4-(4-Phenyl-1-piperazinyl)methylphenyl)-4-((3Z,6Z)-6-benzylidene-1-methyl-2,5-dioxo-3-piperazinylidene)methylbenzamide, hydrochloride], the Potentiation index in series [1] stood at 17. In addition, the IC50 in series [2] (setting [5]) came to 40000 nM; in series [3] (setting [6]), 5000 nM.
As to `COc1cc2c(cc1OC)CN(CCc1ccc(/C=c3\[nH]c(=O)/c(=C/c4ccccc4)n(C)c3=O)cc1)CC2` [Compound 9115, (3Z,6Z)-6-Benzylidene-3-(4-(2-(6,7-dimethoxy-1,2,3,4-tetrahydro-2-isoquinolyl)ethyl)benzylidene)-1-methyl-2,5-piperazinedione], the IC50 amounted to 60000 nM in series [2] (setting [5]), 2000 nM in series [4] and 5000 nM in series [3] (setting [6]).
In the same order, the values of `Cn1c(=O)/c(=C/c2ccc(C(=O)NCCN3CCc4ccccc4C3)cc2)[nH]c(=O)/c1=C/c1ccccc1` [Compound 9116, N-(2-(1,2,3,4-Tetrahydro-2-isoquinolyl)ethyl)-4-((3Z,6Z)-6-benzylidene-1-methyl-2,5-dioxo-3-piperazinylidene)methylbenzamide, hydrochloride] are 8000 nM, 1000 nM and 4000 nM.
Take `COc1ccc(CCNC(=O)c2ccc(/C=c3\[nH]c(=O)/c(=C/c4ccccc4)n(C)c3=O)cc2)cc1OC` [Compound 9117, N-(3,4-Dimethoxyphenethyl)-4-((3Z,6Z)-6-benzylidene-1-methyl-2,5-dioxo-3-piperazinylidene)methylbenzamide]: the half-inhibitory concentration (IC50) worked out at 8000 nM in series [2] (setting [5]), 3000 nM in series [4] and 5000 nM in series [3] (setting [6]).
In the same order, the values of `COc1cc2c(cc1OC)CN(Cc1ccc(NC(=O)c3cccc(/C=c4\[nH]c(=O)/c(=C/c5ccccc5)n(C)c4=O)c3)cc1)CC2` [Compound 9128, N-(4-(6,7-Dimethoxy-1,2,3,4-tetrahydro-2-isoquinolyl)methylphenyl)-3-((3Z,6Z)-6-benzylidene-1-methyl-2,5-dioxo-3-piperazinylidene)methylbenzamide] are 10000 nM, 2000 nM and 3000 nM.
In the same order, the values of `COc1ccc(CCN(C)CCNC(=O)c2cccc(/C=c3\[nH]c(=O)/c(=C/c4ccccc4)n(C)c3=O)c2)cc1OC` [Compound 9137] are 12000 nM, 4500 nM and 2000 nM.
Regarding `COc1cc2c(cc1OC)CN(CC1CCN(C(=O)c3ccc(/C=c4\[nH]c(=O)/c(=C/c5ccccc5)n(C)c4=O)cc3)CC1)CC2` [Compound 9200, 1-(4-((3Z,6Z)-6-Benzylidene-1-methyl-2,5-dioxo-3-piperazinylidene)methylbenzoyl)-4-(6,7-dimethoxy-1,2,3,4-tetrahydroisoquinolyl)methylpiperidine], the values for the IC50 in series [2] (setting [5]), in series [4] and in series [3] (setting [6]) were 13000 nM, 800 nM and 1700 nM, respectively.
